Key:
[1] = tested on: aorta; test: Isometric contraction force of isolated aortic rings precontracted by KCl; assay type: cell-based, guinea pigs; conditions: for EC50: Cavia porcellus, aortic rings precontracted by 90 mmol/l KCl, Krebs-Henseleit solution, 37°C
Procedure: (§1) The COS-releasing compounds according to the present invention were tested on isolated muscle-preparations of the aorta, arteria pulmonalis, terminal ileum, papillary muscle and the right atrium (derived from guinea pigs) for their vasodilatory effect.
(§2) Guinea pigs of both sexes (340-480 g) were killed with a blow on the neck. After excision of the heart, the aorta and the ileum were dissected. The aorta was cleaned of loosely adhering fat and connective tissue and cut into rings of 2 mm width. The terminal portion of the ileum was removed and the 10 cm nearest to the caecum were discarded. The intestine was placed in a nutrient solution. The intestine was cleaned by flushing with nutrient solution and cut into pieces of 2 to 3 cm length. The arteria pulmonalis was dissected close to the heart, cleaned and cut into rings of 2 mm width. Papillary muscles were dissected from the right ventricle for contractility measurements. Purkinje fibres were carefully removed to prevent spontaneous activity. Only muscles with a diameter of less than 0.87 mm were used in order to have a sufficient oxygen supply. Chronotropic activity was tested on guinea-pig isolated right atria.
(§3) After isolation the preparations (aortic rings, terminal ilea, arteria pulmonalis rings, papillary muscles and right atria) were stored at room temperature in gassed (95% O2-5% CO2) Krebs-Henseleit solution with the following composition (in mmol/l): NaCl 114.9, KCl 4.73, CaCl2 3.2, MgSO4 1.18, NaHCO3, 24.9, KH2PO4 1.18, glucose 10; pH 7.2-7.4.
(§4) Isometric contraction force of electrically stimulated papillary muscles (1 Hz), terminal ilea precontracted by 60 mmol/l KCl, aortic and arteria pulmonalis rings precontracted by 90 mmol/l KCl as well as spontaneous activity of right atria was measured by the method described by Reiter (Reiter, M. Bioassay of inotropic agents on the isolated papillary muscle. Arzneim. Forsch. 1967, 17, 1249-1253).
(§5) The preparations were placed in a continuously oxygenated (95% O2 and 5% CO2) bath of 35 ml nutrient solution to guarantee sufficient oxygen supply and appropriate pH as well as circulation of nutrient solution with and without test compound. The experiments were performed at a temperature of 37±1° C. The smooth and heart muscle preparations were connected with one end to a tissue holder and the other to a force transducer (Transbridge™, 4-Channel Transducer Amplifier, World Precision Instruments, Sarasota, Fla., USA). Papillary muscles were electrically driven with an Anapulse Stimulator Model 301-T and an Isolation Unit Model 305-1 (WPI, Hamden, Conn., USA) at a frequency of 1 Hz and a pulse duration of 3 ms. Amplitude of stimulation pulse was adjusted 10% above threshold level. Resting tension of either 3.92 mN (papillary muscles), 10.37 mN (right atria) or 19.6 mN (aortic and arteria pulmonalis rings) was kept constant throughout the experiments.
(§6) Signals were recorded with a chart recorder (BD 112 Dual Channel, Kipp & Zonen) and evaluated. For statistical analyses the arithmetic means and standard error of the mean (SEM) of n experiments were calculated. Statistical significance of the results was evaluated by the Student's t-test for paired observations. EC50-values were graphically determined from the concentration response curves.
(§7) Stock solutions of the compounds were dissolved in distilled water every day and were further diluted with modified Krebs-Henseleit solution to the required concentrations (1, 3, 10, 30 and 100 μmol/l).

[2] = tested on: arteria pulmonalis; test: Isometric contraction force of isolated arteria pulmonalis rings precontracted by KCl; assay type: cell-based, guinea pigs; conditions: Cavia porcellus; arteria pulmonalis rings precontracted by 90 mmol/l KCl
Procedure: as §1, §2, §3, §4, §5, §6, §7

[3] = tested on: terminal ileum; test: Isometric contraction force of isolated terminal ilea precontracted by KCl; assay type: cell-based, guinea pigs; conditions: Cavia porcellus; terminal ilea precontracted by 60 mmol/l KCl
Procedure: as §1, §2, §3, §4, §5, §6, §7

[4] = tested on: papillary muscle; test: Isometric contraction force of electrically stimulated papillary muscles; assay type: cell-based, guinea pigs; conditions: Cavia porcellus; electrically stimulated (1 Hz)
Procedure: as §1, §2, §3, §4, §5, §6, §7

[5] = tested on: right atrium; test: Spontaneous (chronotropic) activity of isolated right atria; assay type: cell-based, guinea pigs; conditions: Cavia porcellus
Procedure: as §1, §2, §3, §4, §5, §6, §7

[6] = tested on: aortic rings; test: Contraction force of aortic rings in blood plasma; assay type: cell-based, guinea pigs; conditions: 100 μM, guinea pig blood plasma, KCl 90 mM, after 60 minutes
Procedure: Guinea pigs of both sexes (340-480 g) were killed with a blow on the neck. The thorax was opened immediately and heparinized blood was collected. After centrifugation of the blood, the blood plasma was obtained which was used in the further experiments. Further, the aorta of the guinea pigs was excised and prepared as described in 4.3. Thus, the aortic rings were present at room temperature in Krebs-Henseleit solution and put under a resting tension. The contraction force was determined as described under 4.3. A stock solution of CRC80HCl in distilled water was prepared. CRC80HCl was used in a final concentration of 100 μM in the experiments.
In a second experiment, the Krebs-Henseleit solution was exchanged with blood plasma of the guinea pigs gained as described above prior to the addition of CRC80HCl. Thus, the Krebs-Henseleit solution was exchanged by 6 ml blood plasma and KCl was added 15 minutes later to a final concentration of 90 mM. Once a steady state was reached, CRC80HCl was added to a final concentration of 100 μM and the contraction force was recorded over a period of 60 minutes. After the period of 60 minutes, a decrease of the contraction force of 39% was observed.

[7] = tested on: smooth muscle preparations; test: Vasodilatory activity on smooth muscle preparations (preparation not specified); assay type: cell-based, guinea pigs; conditions: for vasodilatory activity on smooth muscle preparations: setup of 4.3, aqueous solution; for EC50: Cavia porcellus, setup of 4.3, preparation not specified, read-out: EC50 vasodilatory activity (negative controls)
Procedure: as §1, §2, §3, §4, §5, §6, §7
Compounds CRC59, CRC59HCl, CRC60 and CRC60HCl as indicated in the table below were used as negative controls in the present experimental setup. Due to the exchange of sulfur against oxygen, said compounds are not able to release COS.

[8] = Stability in aqueous solution (concluded from inactivity in aqueous setup); assay type: physicochemical; conditions: conditions of 4.3
Source text: Some of the COS releasing compounds according to formula (I) may, however, release COS in a spontaneous hydrolysis reaction due to the presence of H2O in aqueous solutions, suspensions, and the like. Said compounds may also be referred to as being “instable compounds” in aqueous solutions. The determination of the stability of COS releasing compounds according to the present invention may easily be determined, e.g. by dissolving a compound to be tested in an aqueous solution and determining the amount of COS released over time.

[9] = tested on: isolated mouse heart; test: Isolated mouse heart, Langendorff perfusion; assay type: cell-based, female OF-1 mice
Procedure: Hearts from female OF-1 mice were excised, cannulated and perfused retrogradely, according to the Langendorff technique, with modified oxygenated Krebs-Henseleit-buffer at constant pressure. After 15 min of baseline perfusion, CRC1HCl (10 μM) was administered into the coronary perfusion system for 10 min. Coronary flow (CF), heart rate (HR), aortic pressure (AoP), concentrations of K^+, Na^+, Ca^2+ and the pH-value were monitored throughout the whole experiment (CRC1HCl-group, n=8; control group, n=8).
In a second set of experiments in the setup as described above, nitro-L-arginine (L-NA) (n=6) and PNU-37883A (n=4) were evaluated as potential inhibitors of CRC1HCl (10 μM) activity. The compounds were added to final concentrations of 100 μM (L-NA) and 10 μM (PNU-37883A).
Also, the myocardial consumption of lactate and glucose was monitored in both the control-group and the CRC1HCl-group.

[10] = 10 μM, vs control, data not shown

Row | Structure (SMILES) | EC50 [1] | EC50 [2] | EC50 [3] | EC50 [4] | EC50 [5] | also measured
1 | CCOC(=O)CCSC(=S)n1ccnc1 [CRC11HCl] | 16 µM | 19.8 µM | 32.1 µM | > 100 µM | > 100 µM | –
2 | CCOC(=S)OCCCN(C)C.Cl [CRC80HCl] | – | – | – | – | – | vasodilatory activity on the aortic ring in Krebs-Henseleit solution ([1]; 100 μM, period of 45 minutes): did not show a vasodilatory activity; decrease of the contraction force [6]: 39%
3 | S=C(SCc1ccccc1)n1ccnc1 [CRC8HCl] | 20.1 µM | 63 µM | 15.3 µM | 26 µM | > 100 µM | –
4 | COc1ccc2ncn(C(=S)SC)c2c1 [CRC6] | – | – | – | – | – | melting point: 64 to 87 °C
5 | CC(=O)OCCSC(=S)n1ccnc1 [CRC13HCl] | 5.75 µM | 24 µM | 100 µM | 77 µM | > 100 µM | –
6 | CSC(=S)n1c(C)nc2ccccc21 [CRC4HCl] | 22.8 µM | 25.1 µM | 25.6 µM | > 100 µM | 56 µM | –
7 | Cc1nccn1C(=S)SCc1ccccc1 [CRC9HCl] | 3.36 µM | 10.5 µM | 17.2 µM | > 100 µM | 15.3 µM | –
8 | S=C(N1CCN(C(=S)n2ccnc2)CC1)n1ccnc1 [CRC66] | – | – | – | – | – | melting point: 225 to 226 °C
9 | CSC(=S)n1ccnc1C [CRC5HCl] | 6.3 µM | 11.2 µM | 9.5 µM | > 100 µM | > 100 µM | –
10 | CC(C)OC(=O)n1ccnc1 [CRC60] | – | – | – | – | – | vasodilatory activity on smooth muscle preparations [7]: did not show vasodilatory activity
11 | CC(C)OC(=O)n1ccnc1.Cl [CRC60HCl] | – | – | – | – | – | EC50 [7]: > 100 µM; vasodilatory activity on smooth muscle preparations [7]: did not show vasodilatory activity
12 | CN(C)CCOC(=S)OCCN(C)C.Cl.Cl [CRC72HCl] | – | – | – | – | – | vasodilatory activity on smooth muscle preparations [7]: inactive; stability in aqueous solutions [8]: stable in aqueous solutions
13 | S [H2S, hydrogen sulfide, reference compound] | 107 µM | – | – | – | – | –
14 | O=C(OC1CCCCC1)n1ccnc1 [CRC59] | – | – | – | – | – | vasodilatory activity on smooth muscle preparations [7]: did not show vasodilatory activity
15 | COc1cc(CSC(=S)n2ccnc2)cc(OC)c1OC [CRC33] | 2.98 µM | 7.9 µM | 15.3 µM | > 100 µM | 26.5 µM | melting point: 110 to 113 °C
16 | CSC(=S)n1ccnc1.Cl [CRC1HCl] | 7.8 µM | 6.9 µM | 5.7 µM | 78 µM | > 100 µM | aortic pressure (AoP) ([9]; 10 μM for 10 min, vs control): not significantly affected or altered; concentration of Ca2+ in coronary effusate ([9]; 10 μM for 10 min, vs control): not significantly affected or altered; concentration of K+ in coronary effusate ([9]; 10 μM for 10 min, vs control): not significantly affected or altered; concentration of Na+ in coronary effusate ([9]; 10 μM for 10 min, vs control): not significantly affected or altered; heart rate (HR) ([9]; 10 μM for 10 min, vs control): not significantly affected or altered; pH-value of coronary effusate ([9]; 10 μM for 10 min, vs control): not significantly affected or altered; coronary flow (CF) ([9]; 10 μM for 10 min, during and 30 minutes after administration, vs control, p<0.05): significantly increased; myocardial consumption of glucose [9, 10]: not significantly affected or altered; myocardial consumption of lactate [9, 10]: not significantly affected or altered; effect of inhibition of ATP-sensitive potassium-channels on the vasodilatory effect ([9]; CRC1HCl 10 μM with PNU-37883A 10 μM, data not shown): had no effect; effect of inhibition of nitric oxide synthase on the vasodilatory effect ([9]; CRC1HCl 10 μM with nitro-L-arginine 100 μM, data not shown): had no effect
17 | Cl.O=C(OC1CCCCC1)n1ccnc1 [CRC59HCl] | – | – | – | – | – | EC50 [7]: > 100 µM; vasodilatory activity on smooth muscle preparations [7]: did not show vasodilatory activity
18 | COc1ccc(CSC(=S)n2ccnc2)cc1 [CRC10HCl] | 12.8 µM | 24 µM | 100 µM | > 100 µM | > 100 µM | –
